This is an account of results in patent US9079876B2, “Imidazole derivatives and preparation method and use thereof” (Beijing Orbiepharm Co., Ltd., priority 2010, dated 2015).

Structures are written as SMILES.

One assay has as its target T1, COX-1 (Canis lupus familiaris, UniProt Q8HZR1).
T1 construct: in vitro activity study using beagle dog whole blood was conducted; from tissue; host or cells: beagle dog whole blood (platelets, by the same method as for human blood)
T1 sequence (Q8HZR1 28-603): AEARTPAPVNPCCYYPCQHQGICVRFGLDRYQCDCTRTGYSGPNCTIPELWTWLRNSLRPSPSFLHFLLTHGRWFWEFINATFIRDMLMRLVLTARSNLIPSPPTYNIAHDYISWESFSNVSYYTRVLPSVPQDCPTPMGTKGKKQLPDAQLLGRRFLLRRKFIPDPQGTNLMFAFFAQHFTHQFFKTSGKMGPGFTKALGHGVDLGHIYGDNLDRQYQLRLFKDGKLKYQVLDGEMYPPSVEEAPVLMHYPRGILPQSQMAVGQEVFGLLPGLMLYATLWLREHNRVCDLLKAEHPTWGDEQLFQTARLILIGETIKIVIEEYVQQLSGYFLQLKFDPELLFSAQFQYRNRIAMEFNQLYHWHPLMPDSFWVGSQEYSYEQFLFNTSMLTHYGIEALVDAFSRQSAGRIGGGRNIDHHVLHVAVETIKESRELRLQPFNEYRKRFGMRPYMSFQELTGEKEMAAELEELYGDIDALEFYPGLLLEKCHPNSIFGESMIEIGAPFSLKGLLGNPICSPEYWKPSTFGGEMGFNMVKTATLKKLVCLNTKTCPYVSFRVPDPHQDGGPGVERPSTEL
The assay can be described thus: Dog whole blood in vitro activity assay, COX-1. The format is cell-based, beagle dog. The following applies: read-out: IC50 (μg/mL) COX-1 (converted).

Assay [1] concerns the target T2, cyclooxygenase-2 (COX-2 enzyme) (Homo sapiens, UniProt P35354).
T2 construct: from tissue; host or cells: heparinised human whole blood from healthy volunteers, stimulated with LPS
T2 sequence (P35354 18-604): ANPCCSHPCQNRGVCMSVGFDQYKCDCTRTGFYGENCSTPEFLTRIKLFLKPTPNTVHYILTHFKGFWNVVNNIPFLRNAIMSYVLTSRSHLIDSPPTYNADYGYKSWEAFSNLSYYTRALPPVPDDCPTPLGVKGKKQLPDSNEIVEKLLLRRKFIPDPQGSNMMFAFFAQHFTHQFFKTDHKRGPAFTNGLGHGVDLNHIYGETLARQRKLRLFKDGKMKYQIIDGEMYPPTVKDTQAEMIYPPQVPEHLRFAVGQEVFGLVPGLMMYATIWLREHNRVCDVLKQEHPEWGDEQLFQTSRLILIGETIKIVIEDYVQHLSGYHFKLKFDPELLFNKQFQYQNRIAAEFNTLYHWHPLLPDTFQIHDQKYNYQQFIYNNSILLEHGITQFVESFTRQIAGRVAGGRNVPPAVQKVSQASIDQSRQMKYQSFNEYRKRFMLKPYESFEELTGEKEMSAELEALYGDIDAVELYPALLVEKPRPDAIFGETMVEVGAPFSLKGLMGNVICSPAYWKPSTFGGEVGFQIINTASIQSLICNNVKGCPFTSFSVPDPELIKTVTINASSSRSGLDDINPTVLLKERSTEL
Kind of assay: Human whole blood in vitro activity assay, COX-2 (LPS-induced PGE2 by EIA). In kind it is cell-based. The protocol: Human whole blood in vitro activity study: inhibition of activity of cyclooxygenase-1 (COX-1 enzyme) and cyclooxygenase-2 (COX-2 enzyme) in human blood. […] The blood samples were divided into two parts: one was used for detecting COX-1 enzyme activity, and the other was used for detecting COX-2 enzyme activity. The compounds were dissolved in DMSO, and were prepared in advance into 2 μL solutions in respective concentrations of 500, 50, 5, 0.5, 0.05, 0.005, 0.0005 μg/mL. 200 μL whole blood without heparin was added in the tubes containing the compounds, and then incubated at 37° C. for 1 hour. The activity of COX-1 enzyme was detected by determining the amount of thromboxane B2 (TXB2) synthesized by platelet using an EIA kit. Samples tested without the compounds were negative controls. For COX-2, 200 μL whole blood with heparin was added in the tubes containing the compounds and in the tubes containing 10 μg/mL LPS. LPS control and blank control with solvent only were used respectively for determining the maximum value and the background value of the PGE2 produced therefrom. The samples were incubated at 37° C. for 24 hours, and then centrifuged to collect serum/plasma, which was stored at −80° C. for detection by an EIA kit. The EIA kit of Cayman Company was used, the amounts of TXB2 and PGE2 were determined in accordance to the manufacturer's instructions, and the activities of COX-1 and COX-2 were tested respectively.

As for `CS(=O)(=O)c1ccc(-n2cnc(Cl)c2-c2ccccc2)nc1` [Compound 1, 2-(4-chloro-5-phenyl-1H-imidazol-1-yl)-5-(methylsulfonyl)pyridine], the IC50 is 219 µM at COX-1 and 0.899 µM in assay [1] (LPS, PGE2, read-out: IC50 (μg/mL) COX-2 (converted)). The same molecule came in with an IC50COX-1/IC50COX-2 in assay [1] of 44.0.
